≈ marks a conversion by molar mass, not a printed value. Entries after “also recorded” stand apart in the source; their conditions may differ. Like-named read-outs stand apart in the source and are kept apart here.
Columns and labels:
translation = details: specific inhibitor of trans-translation; cited from earlier work
trans-translation = details: dose response assay; Ramadoss et al., PNAS 2013; cited from earlier work
[1] = Preliminary PK studies in mice; details: IV or IP dosing at 10 mg/kg, data not shown
[2] = Stability in liver microsomes in vitro; details: mouse or human liver microsomes in vitro; data not shown
mammalian systems = details: even in the context of prolonged exposure; cited from earlier work
[3] = system: Franciscella tularensis (Schu13); assay: organism not typed; assay type: cell-based
N. gonorrhoeae = assay: MIC90 determination, clinical isolates; assay type: cell-based; details: Neisseria gonorrhoeae
[4] = system: Haemophilus influenza 35056; assay type: cell-based
[5] = Mammalian cell cytotoxicity
Yersinia pestis = assay: microbe, parasite or virus in culture; assay type: cell-based
E. coli TolC(−) [6] = details: MIC in the presence of 10% fetal calf serum versus without
N. gonorrhoeae 49226 = assay type: cell-based; details: Neisseria gonorrhoeae
[7] = system: E. coli (700, TolC+) efflux pos; assay type: cell-based; details: Escherichia coli
Franciscella tularensis = assay: organism not typed; assay type: cell-based
B. anthracis = assay: microbe, parasite or virus in culture; assay type: cell-based; details: Bacillus anthracis
[8] = system: Legionella pneumophila 33153; assay: microbe, parasite or virus in culture; assay type: cell-based
Caco-2 permeability = assay type: in vitro ADME; details: human, direction not given
Description: Res., 15(5): 726-733 (1998).

Brucella suis = assay: microbe, parasite or virus in culture; assay type: cell-based
[9] = system: S. aureus (ATCC 35556, spec, kan-res); assay type: cell-based; details: Staphylococcus aureus, ATCC35556
MRSA USA 300 (BAA-1717) = assay type: cell-based; details: Staphylococcus aureus
MRSA-1094 (MDR) = assay type: cell-based; details: Staphylococcus aureus
[10] = Microsomal stability + NADPH; details: mouse liver microsomes, 0.5 hr at 37° C.
M. pneumoniae 15531 = assay type: cell-based; details: Mycoplasmoides pneumoniae
[11] = system: S. aureus ATCC 25923 (MSSA. osteomyelitis isolate); assay type: cell-based; details: Staphylococcus aureus
[12] = system: S. aureus WTBF-19 (MSSA. osteomyelitis isolate); assay type: cell-based; details: Staphylococcus aureus
[13] = Aqueous solubility, nephelometry; details: water, kinetic from dmso stock
Mouse serum stability = details: 5 μM, 37° C., 4 h
S. pneumoniae 49619 = assay type: cell-based; details: Streptococcus pneumoniae
[14] = system: N. gonorrhoeae H041 (MDR including AZM and CTX); assay type: cell-based; details: Neisseria gonorrhoeae
[15] = system: Moraxella catarrhalis 8176; assay type: cell-based
[16] = system: S. aureus NRS-77 (spec-res); assay type: cell-based; details: Staphylococcus aureus, NRS77
E. coli TolC(−) [17] = assay: TolC(−) MIC (NB); assay type: cell-based; details: Escherichia coli, read-out: TolC(−) MIC (μM)(NB)
[18] = system: S. aureus (MRSA-1234547263, Cip-res); assay type: cell-based; details: Staphylococcus aureus
MRSA N315 NRS-70 = assay type: cell-based; details: Staphylococcus aureus
[19] = Mouse serum binding, equilibrium dialysis
[20] = Haemophilus influenza 35056, read-out: MIC
[21] = N. gonorrhoeae 49226, read-out: MIC
[22] = E. coli (700, TolC+) efflux pos, read-out: MIC
[23] = MRSA USA 300 (BAA-1717), read-out: MIC
[24] = M. pneumoniae 15531, read-out: MIC
[25] = S. pneumoniae 49619, read-out: MIC
[26] = S. aureus NRS-77 (spec-res), read-out: MIC
[27] = MRSA N315 NRS-70, read-out: MIC
[28] = S. aureus ATCC 25923 (MSSA), read-out: MIC

| SMILES | MIC [3] | CC50 [5] | MIC90 (Franciscella tularensis) | MIC [8] | Papp (Caco-2 permeability) | MIC [9] | MIC (MRSA-1094 (MDR); MRSA) | Microsomal Stability + NADPH % degraded [10] | MIC [11] | solubility [13] | Serum Stability (% remain) (Mouse serum stability) | MIC (E. coli TolC(−) [17]) | fraction unbound [19] | MIC [4, 20] | MIC (N. gonorrhoeae 49226; [21]) | MIC [7, 22] | MIC (MRSA USA 300 (BAA-1717); [23]) | MIC (M. pneumoniae 15531; [24]) | MIC (S. pneumoniae 49619; [25]) | MIC ([15]; read-out: MIC) | also measured |
| --- | --- | --- | --- | --- | --- | --- | --- | --- | --- | --- | --- | --- | --- | --- | --- | --- | --- | --- | --- | --- | --- |
| O=C(Nc1nnc(-c2ccc(F)cc2)o1)c1ccc(Cl)cc1 [KKL-35] |  |  |  |  |  |  |  |  |  |  |  |  |  |  |  |  |  |  |  |  | effect on translation (translation): no effect on translation; IC50 (trans-translation): 0.9 µM; bioavailability in mice [1]: extremely poor bioavailability; also recorded: undetectable in mouse serum at 6 h; stability in the presence of liver microsomes [2]: poor microsomal stability; also recorded: no detectable material after 5 min; cytotoxicity (mammalian systems): lack of cytotoxicity |
| O=C(Nc1nnc(-c2ccc(F)cc2)o1)N1CCc2ccccc2C1 [compound 4132, N-[5-(4-fluorophenyl)-1,3,4-oxadiazol-2-yl]-3,4-dihydroisoquinoline-2(1H)-carboxamide] | 0.13 µg/mL (≈ 0.384 µM) | 27.2 µM | 0.13 µg/mL (≈ 0.384 µM) | 8.46 µg/mL (≈ 25 µM) | 65.8 ×10⁻⁶ cm/s | 4.23 µg/mL (≈ 12.5 µM) | 3.17 µg/mL (≈ 9.37 µM) | 27% | 6.34 µg/mL (≈ 18.7 µM) | 6.25 µM (≈ 2.11 µg/mL) | >95% | 7.87 µM (≈ 2.66 µg/mL) |  |  |  |  |  |  |  |  | MIC90 (N. gonorrhoeae): 0.54 µg/mL (≈ 1.6 µM); MIC ([4]; Haemophilus, 35056): 16.9 µg/mL (≈ 50 µM); MIC (Yersinia pestis): 8.46 µg/mL (≈ 25 µM); Fold Serum Shift vs. TolC(−) (E. coli TolC(−) [6]): 12.7 fold; MIC (N. gonorrhoeae 49226; 49226): 0.18 µg/mL (≈ 0.532 µM); MIC [7]: > 35 µg/mL; MIC (B. anthracis): 4.06 µg/mL (≈ 12 µM); MIC (Brucella suis): 4.23 µg/mL (≈ 12.5 µM); MIC (MRSA USA 300 (BAA-1717)): 1.06 µg/mL (≈ 3.13 µM); MIC (M. pneumoniae 15531; 15531): > 33.8 µg/mL; MIC ([12]; MSSA): 4.23 µg/mL (≈ 12.5 µM); MIC (S. pneumoniae 49619; 49619): 33.8 µg/mL (≈ 99.9 µM); MIC [14]: 0.13 µg/mL (≈ 0.384 µM); MIC [15]: 0.034 µg/mL (≈ 0.1 µM); MIC [16]: 3.17 µg/mL (≈ 9.37 µM); MIC ([18]; MRSA): 3.17 µg/mL (≈ 9.37 µM); MIC (MRSA N315 NRS-70): 6.34 µg/mL (≈ 18.7 µM) |
| O=C(Nc1nnc(-c2ccc(F)cc2)o1)c1ccc(Oc2ccccc2)nc1 [compound 4237, 2-(6-phenoxynicotinamido)-5-(4-fluorophenyl)-1,3,4-oxadiazole] | 0.75 µg/mL (≈ 1.99 µM) | > 100 µM | 1.51 µg/mL (≈ 4.01 µM) | 0.87 µg/mL (≈ 2.31 µM) | 12.7 ×10⁻⁶ cm/s | 2.35 µg/mL (≈ 6.24 µM) | 2.35 µg/mL (≈ 6.24 µM) | 9% | 2.35 µg/mL (≈ 6.24 µM) | 6.25 µM (≈ 2.35 µg/mL) | >95% | 1.56 µM (≈ 0.588 µg/mL) | 0.002 | 9.41 µg/mL (≈ 25 µM) | 0.75 µg/mL (≈ 1.99 µM) | > 39 µg/mL | 2.1 µg/mL (≈ 5.58 µM) | 18.8 µg/mL (≈ 50 µM) | 4.7 µg/mL (≈ 12.5 µM) | 0.06 µg/mL (≈ 0.159 µM) | MIC ([12]; MSSA): 2.35 µg/mL (≈ 6.24 µM); MIC [16, 26]: 2.96 µg/mL (≈ 7.87 µM); MIC ([18]; MRSA): 2.35 µg/mL (≈ 6.24 µM); MIC (MRSA N315 NRS-70; [27]): 4.7 µg/mL (≈ 12.5 µM) |
| O=C(Nc1nnc(-c2ccc(F)cc2)o1)c1ccc(OC2CCCCC2)cc1 [compound 4292] |  | 23.7 µM |  | 0.61 µg/mL (≈ 1.6 µM) | 1 ×10⁻⁶ cm/s | 0.95 µg/mL (≈ 2.49 µM) |  | 20% |  | 6.25 µM (≈ 2.38 µg/mL) | 82% | 1.1 µM (≈ 0.421 µg/mL) | < 0.01 | > 39 µg/mL | 0.1 µg/mL (≈ 0.262 µM) | > 39 µg/mL | 0.3 µg/mL (≈ 0.787 µM) | 19.1 µg/mL (≈ 50.1 µM) | 4.77 µg/mL (≈ 12.5 µM) | < 0.02 µg/mL | MIC (MRSA-1094 (MDR); MRSA-1094 (MDR), read-out: MIC): 0.75 µg/mL (≈ 1.97 µM); MIC [11, 28]: 1.23 µg/mL (≈ 3.22 µM); MIC ([12]; S. aureus WTBF-19 (MSSA), read-out: MIC): 1.19 µg/mL (≈ 3.12 µM); MIC [16, 26]: 1.17 µg/mL (≈ 3.07 µM); MIC ([18]; S. aureus (MRSA-1234547263, Cip-res), read-out: MIC): 0.67 µg/mL (≈ 1.76 µM); MIC (MRSA N315 NRS-70; [27]): 1.36 µg/mL (≈ 3.57 µM) |
| O=C(Nc1nnc(-c2ccc(F)cc2)o1)c1ccc(OC2CCCC2)cc1 [compound 4293] |  | 31.8 µM |  | 0.59 µg/mL (≈ 1.61 µM) |  |  |  | 59% |  | 3.12 µM (≈ 1.15 µg/mL) | 88% | 1.39 µM (≈ 0.511 µg/mL) | 0.001 | 12.2 µg/mL (≈ 33.3 µM) | 0.09 µg/mL (≈ 0.245 µM) | > 36 µg/mL | 0.29 µg/mL (≈ 0.789 µM) | 18.4 µg/mL (≈ 50.1 µM) | 4.59 µg/mL (≈ 12.5 µM) | < 0.02 µg/mL | MIC (MRSA-1094 (MDR); MRSA-1094 (MDR), read-out: MIC): 0.72 µg/mL (≈ 1.96 µM); MIC [11, 28]: 1.15 µg/mL (≈ 3.13 µM) |
